According to patent publication US20050113420A1, “Methionine aminopeptidase inhibitor” (priority 2002, published 2005):
pIC50: −log10 of the molar value.

What was measured:
hMetAP1 = hMetAP1 (Homo sapiens, UniProt P53582); assay: hMetAP1 inhibition; type: biochemical
Description: (§1) Hydrolysis of the synthesized Met-S-C-Phe thiopeptolide substrate generates a free thiol group, which reacts with excessive DTNB instantly to produce a highly chromogenic product, 3-carboxyl-4-nitrothiophenol (ε412=13,600 M^−1cm^−1). Therefore, the enzymatic reaction catalyzed by MetAP can be continuously monitored at 412 nm on a SpectraMAX 340 microplate reader.
(§2) Employed conventional screening method (Anal Biochem. 2000, 280: 159-65)
(§3) All the compounds were initially screened at the multiple concentrations 2 μg/mL, 20 μg/mL, 100 μg/mL. When the inhibitory activities of the compounds were larger than 50%, their estimated IC50 value were determinated at eight inhibitor concentrations.

EcMetAP = biological target: T1, EcMetAP (Escherichia coli, UniProt P0AE18); assay: EcMetAP inhibition, Met-S-C-Phe thiopeptolide/DTNB assay at 412 nm; type: biochemical, E. coli; conditions: for IC50: Co-loaded enzyme, estimated IC50 at eight inhibitor concentrations, read-out: IC50(μM) EMetAP
T1 construct: made in house; host or cells: E. coli
Description: EcMetAP was cloned and overexpressed in E. coli, and purified by (NH4)2SO4 precipitation and Q-Sepharose column separation to give apo-EcMetAP.
as §1, §2, §3

[1] = biological target: type 2 methionine aminopeptidase (Homo sapiens, UniProt P50579); conditions: covalent binding inhibitors; cited from earlier work
EcMetAP1 = EcMetAP1 (Escherichia coli, UniProt P0AE18); conditions: read-out: IC50 EcMetAP1; cited from earlier work
Sequence of EcMetAP1 (P0AE18 whole entry): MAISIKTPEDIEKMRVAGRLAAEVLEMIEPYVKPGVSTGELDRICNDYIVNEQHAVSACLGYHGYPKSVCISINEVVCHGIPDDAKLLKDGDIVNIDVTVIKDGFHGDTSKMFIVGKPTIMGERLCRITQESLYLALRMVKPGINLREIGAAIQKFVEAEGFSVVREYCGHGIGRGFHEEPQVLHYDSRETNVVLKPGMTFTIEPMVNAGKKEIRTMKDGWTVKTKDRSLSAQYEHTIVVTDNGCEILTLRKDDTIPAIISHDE

T1 sequence (P0AE18 whole entry): as above
Sequence of type 2 methionine aminopeptidase (P50579 whole entry): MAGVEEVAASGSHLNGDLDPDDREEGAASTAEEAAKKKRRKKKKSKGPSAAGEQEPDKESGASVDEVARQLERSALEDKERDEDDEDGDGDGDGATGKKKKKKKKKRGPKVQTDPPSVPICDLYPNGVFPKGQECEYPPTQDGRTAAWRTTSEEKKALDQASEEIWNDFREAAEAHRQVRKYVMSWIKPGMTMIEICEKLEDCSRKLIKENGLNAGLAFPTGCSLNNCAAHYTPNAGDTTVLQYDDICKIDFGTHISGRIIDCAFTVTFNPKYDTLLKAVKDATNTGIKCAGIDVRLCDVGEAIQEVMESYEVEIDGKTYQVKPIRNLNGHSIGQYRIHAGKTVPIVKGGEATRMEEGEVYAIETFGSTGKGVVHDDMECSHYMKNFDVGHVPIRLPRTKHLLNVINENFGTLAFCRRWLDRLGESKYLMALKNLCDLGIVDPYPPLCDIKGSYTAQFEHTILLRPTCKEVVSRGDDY

Molecule	IC50 (hMetAP1)	IC50 (EcMetAP)	other results
O=C(Oc1cccnc1C(=O)Nc1nccs1)c1ccc(F)cc1 [Compound 46]	7 µM	1.31 µM	
Nc1ccccc1C(=O)Nc1nccs1 [Compound 7]			inhibition at 20 µg/mL (EcMetAP; read-out: inhibition of EMetAP): 30%
CC(=O)Oc1cccnc1C(=O)Nc1nccs1 [Compound 34]	29 µM	8.2 µM	
Cc1nc(C(=O)Nc2nccs2)cs1 [Compound 55]		0.4 µM	
O=C(Oc1cccnc1C(=O)Nc1nccs1)c1ccc(F)c(Br)c1 [Compound 45]	17.4 µM	1.35 µM	
CO[C@@H]1[C@H](OC(=O)NC(=O)CCl)CC[C@]2(CO2)[C@H]1[C@@]1(C)O[C@@H]1CC=C(C)C [TNP-470]			IC50 MetAPs [1]: in the nM range
O=C(Nc1nccs1)c1cccc(CO)n1 [Compound 32]		5.82 µM	
O=C(Nc1nccs1)c1ncccc1OCc1ccccc1 [Compound 47]	7.8 µM	5.31 µM	
Nc1cccnc1C(=O)Nc1nccs1 [Compound 50]	11 µM	5.56 µM	
COc1ccccc1C(=O)Oc1cccnc1C(=O)Nc1nccs1 [Compound 37]	15.4 µM	1.9 µM	
O=C(Oc1cccnc1C(=O)Nc1nccs1)c1ccccc1 [Compound 36]	28.7 µM	1.1 µM	
O=C(Nc1cccnc1C(=O)Nc1nccs1)c1ccc(F)cc1 [Compound 53]		0.05 µM	
CO[C@@H]1[C@H](OC(=O)/C=C/C=C/C=C/C=C/C(=O)O)CC[C@]2(CO2)[C@H]1[C@@]1(C)O[C@@H]1CC=C(C)C [fumagillin]			IC50 MetAPs [1]: in the nM range
COc1cccnc1C(=O)Nc1nccs1 [Compound 35]	20.9 µM	4.49 µM	
O=C(Nc1cccnc1C(=O)Nc1nccs1)c1ccccc1 [Compound 51]		0.14 µM	
O=C(Nc1nccs1)c1ccc2ccccc2n1 [Compound 27]		51 µM	
O=C(Nc1ncc(Br)s1)c1ccccn1 [Compound 17]		6 µM	
CC(C)(C)OC(=O)Nc1cccnc1C(=O)Nc1nccs1 [Compound 52]		1.25 µM	
COc1ccccc1/C=C/C(=O)Oc1cccnc1C(=O)Nc1nccs1 [Compound 44]		1.8 µM	
O=C(Nc1nccs1)c1cc(Cl)ccn1 [Compound 16]		4.84 µM	
O=C(Oc1cccnc1C(=O)Nc1nccs1)c1cccc([N+](=O)[O-])c1 [Compound 41]	7.3 µM	1.91 µM	
O=C(Nc1nccs1)c1ncccc1O [Compound 31]		2.33 µM	
AHHPA-Ala-Leu-Val-Phe-OMe			pIC50 (EcMetAP1): 5.30
COc1ccnc(C(=O)Nc2nccs2)c1 [Compound 30]		9.22 µM	
